Reference: patent publication US11891405B2, “Furo[3,4-b]pyrrole-containing BTK inhibitor” (CHIA TAI TIANQING PHARMACEUTICAL GROUP CO., LTD., priority 2018, dated 2024)
Like-named read-outs stand apart in the source and are kept apart here.

How the values were obtained:
[1] = tested on: OCI-LY10 cells; experiment: In vivo pharmacodynamic study, OCI-LY10 xenograft; parameters: species or system NOD-SCID mice; settings: for TGI (%): tumor growth inhibition from tumor weight, 23 days; for TGI (%) / d0 TV Mean ± SD: 50 mg/kg bid i.g.; for d0 TV Mean ± SD: tumor volume at day 0 (grouping); for d21 TV Mean ± SD: tumor volume at day 21, 50 mg/kg bid i.g.; for d23 TV Mean ± SD: tumor volume at day 23, 50 mg/kg bid i.g.
Description: EXPERIMENTAL EXAMPLE 5: IN VIVO PHARMACODYNAMIC STUDY
OCI-LY10 cells were subcutaneously grafted (concentration: 1×10^8/mL×0.1 mL/mice) in NOD-SCID mice at the right side armpit (the inoculated site was shaved upon grafting) under aseptic conditions. After subcutaneous grafting, the animals were grouped when the tumor volume reached about 100-300 mm^3:
Model group: vehicle: 6 mice; I-1: 6 mice, 50 mg/kg, bid, i.g.; I-3: 6 mice, 50 mg/kg, bid, i.g.
The vehicle or compound was administered by intragastric administration at a volume of 10 mL/kg, twice daily, for 23 days. The tumor volume was measured 2-3 times per week, and the mice were weighed at the same time, with the data recorded. Animal behavior was observed daily. After all administration was completed, the animals were executed, stripped of tumors and weighed.
The tumor volume and the tumor growth inhibition were calculated using the following formulas: Tumor volume(TV)=(Length×Width^2)/2. Tumor growth inhibition(TGI)=(1−tumor weight in treatment group/tumor weight in model group)×100%.

[2] = Rat liver microsome metabolic stability; assay type: in vitro ADME; settings: rat liver microsomes
Description: 3.3 Rat Liver Microsome Assay
300 μL of final incubation system: 30 μL of rat liver microsomes (protein concentration: 5 mg/mL, XENOTECH, USA), 30 μL of NADPH (10 mM)+MgCl2 (5 mM), 3 μL of the substrate, i.e., the example compound (dissolved in 50% aqueous acetonitrile solution, 100 μM), and 237 μL of PBS buffer, wherein the proportion of the organic solvent (acetonitrile) was 0.5%. Each tube was added with 270 μL of a mixed solution of substrate and enzyme, and after being pre-incubated at 37° C. for 5 min, added with 30 μL of NADPH+MgCl2. Then 50 μL of the mixture was taken at 0 min, 15 min, 30 min and 60 min, and added with 300 μL of diazepam glacial acetonitrile (20 ng/mL) containing an internal standard to quench the reaction. The reaction mixture was vortexed for 5 min, and centrifuged (13,000 rpm, 4° C.) for 10 min. 100 μL of supernatant was pipetted into a sample vial, from which 1 μL of supernatant was injected and analyzed by LC-MS/MS, and the remaining percentage was calculated.

[3] = target: BTK(WT) (Homo sapiens, UniProt Q06187); experiment: Screening for BTK inhibitory activity; assay type: biochemical
BTK(WT), sequence (Q06187 whole entry): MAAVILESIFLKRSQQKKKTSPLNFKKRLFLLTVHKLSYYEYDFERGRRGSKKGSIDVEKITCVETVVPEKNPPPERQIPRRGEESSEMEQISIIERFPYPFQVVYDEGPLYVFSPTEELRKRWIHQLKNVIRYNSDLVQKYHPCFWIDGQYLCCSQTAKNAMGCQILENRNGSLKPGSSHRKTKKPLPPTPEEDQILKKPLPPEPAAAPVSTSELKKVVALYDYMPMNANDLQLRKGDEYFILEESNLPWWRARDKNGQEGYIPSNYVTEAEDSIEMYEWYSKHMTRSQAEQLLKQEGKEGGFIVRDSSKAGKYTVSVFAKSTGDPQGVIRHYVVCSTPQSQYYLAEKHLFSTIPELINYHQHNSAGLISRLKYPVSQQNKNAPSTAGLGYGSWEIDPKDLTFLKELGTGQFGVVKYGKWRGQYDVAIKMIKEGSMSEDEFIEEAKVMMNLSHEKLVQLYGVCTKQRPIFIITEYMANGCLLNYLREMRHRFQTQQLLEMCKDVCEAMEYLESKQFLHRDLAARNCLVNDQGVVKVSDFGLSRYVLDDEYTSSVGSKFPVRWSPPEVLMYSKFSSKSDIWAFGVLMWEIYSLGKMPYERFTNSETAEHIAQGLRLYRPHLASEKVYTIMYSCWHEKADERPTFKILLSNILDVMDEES
Description: 1.1 Screening for BTK Inhibitory Activity
350 ng/μL BTK stock solution was diluted with kinase buffer (50 mM HEPES, 10 mM MgCl2, 2 mM DTT, 1 mM EGTA, 0.01% Tween 20), and 6 μL of 1.67× working solution at 0.0334 ng/μL (final concentration: 0.02 ng/μL) was added to each well. Different compounds dissolved in DMSO were added to the wells using a nanoliter pipettor, resulting in the final concentration of 1000 nM to 0.244 nM (4-fold gradient for 7 concentrations in total), and blank control wells (without enzyme) and negative control wells (with enzyme, plus vehicle DMSO) were set, 2 replicate wells for each well. After enzyme was reacted with the compound or vehicle for 30 min, 5×ATP at 100 μM (final concentration: 20 μM) prepared with kinase buffer was mixed with 5×substrate at 0.5 μM (final concentration: 0.1 μM, ULight-poly GT) at a ratio of 1:1, and the mixture was added to each well at 4 μL/well. After being sealed with a film, the plate was incubated at room temperature for 2 h, then 5 μL of 4×EDTA at 40 mM (final concentration: 10 mM) was added to each well. After the plate was incubated for 5 min at room temperature, 5 μL of 4× detection reagent at 8 nM (final concentration: 2 nM, Ab) was added to each well, followed by incubation at room temperature for 1 h. The plate was read using a PE Envision multi-functional microplate reader ([…], emission: 665 nm), and IC50 was calculated by four-parameter fitting.

[4] = In vivo pharmacokinetic assay on mouse; settings: ICR mice; for MRT last: read-out: MRT(0-t)
Description: EXPERIMENTAL EXAMPLE 4: IN VIVO PHARMACOKINETIC ASSAY ON MOUSE
ICR mice weighing 18-22 g were randomly grouped into 9 mice in each group after being fed for 3-5 days, and administered intragastrically with related compound at a dose of 10 mg/kg, and injected intravenously with the test compound at a dose of 1 mg/kg, respectively. The test animals (ICR mice) were fasted for 12 h before administration and fed for 4 h after administration, and water was freely drunk before and after the experiment and during the experiment. After intragastric administration, 0.1 mL of the blood at the orbit was collected at 0.25 h (15 min), 0.5 h (30 min), 1 h, 2 h, 4 h, 6 h, 8 h, 10 h and 24 h, and after intravenous injection, 0.1 mL of the blood at the orbit was collected at 0.083 h (5 min), 0.167 h (10 min), 0.5 h (30 min), 1 h, 2 h, 6 h, 8 h, 10 h and 24 h. Each mouse was sampled at 3-4 time points, and 3 mice were sampled at each time point. Whole blood was collected and placed in centrifuge tubes containing EDTA-K2 and sodium fluoride, then transferred to a 4° C. centrifuge within 30 min and centrifuged at 4000 rpm for 10 min to separate the plasma. All plasma was collected and immediately stored at −20° C. for testing. 20 μL of a plasma test sample and a standard curve sample were pipetted into 300 μL of acetonitrile solution containing an internal standard (diazepam […]), and the mixture was shaken and mixed for 5 min, and centrifuged at 13,000 rpm for 10 min. 80 μL of supernatant was diluted with 80 μL of ultrapure water, and the mixture was mixed well, form which 1 μL of the sample was pipetted and analyzed by LC/MS/MS, and a chromatogram was recorded. Oral and intravenous exposure of the compounds disclosed herein was evaluated by pharmacokinetic experiments in mice and the results are shown in Table 4.

Structure (SMILES) | TGI (%) [1] | d0 TV Mean ± SD [1] | d21 TV Mean ± SD [1] | d23 TV Mean ± SD [1] | Rat (RLM) Remaining % (T = 60 min) [2] | IC50 [3] | t1/2z ([4]; ig 10 mg/kg) | CLz ([4]; iv 1 mg/kg) | t1/2z ([4]; iv 1 mg/kg) | bioavailability ([4]; mouse, plasma, oral, ig 10 mg/kg vs iv 1 mg/kg, read-out: Absolute bioavailability F %) | AUC(0-inf) ([4]; mouse, plasma, po, ig 10 mg/kg) | AUC(0-t) ([4]; mouse, plasma, po, ig 10 mg/kg) | Cmax ([4]; mouse, plasma, po, ig 10 mg/kg) | Tmax ([4]; mouse, plasma, po, ig 10 mg/kg) | MRT last ([4]; mouse, plasma, po, ig 10 mg/kg) | AUC(0-inf) ([4]; mouse, plasma, iv 1 mg/kg) | AUC(0-t) ([4]; mouse, plasma, iv 1 mg/kg) | MRT last ([4]; mouse, plasma, iv 1 mg/kg) | Vd ([4]; mouse, plasma, iv 1 mg/kg, read-out: Vz)
CC#CC(=O)N1[C@@H]2COC[C@@H]2C[C@H]1c1nc(-c2ccc(C(=O)Nc3ccccn3)cc2)c2c(N)nccn12 [Compound I-1, 4-(8-amino-3-((2S,3aR,6aS)-1-(but-2-ynoyl)hexahydro-1H-furo[3,4-b]pyrrol-2-yl)imidazo [1,5-a]pyrazin-1-yl)-N-(pyridin-2-yl)benzamide] | 79.4% | 176 ± 35 mm^3 | 742 ± 109 mm^3 | 847 ± 189 mm^3 | 30% | 52.1 nM | 142 min | 340 mL/min/kg | 43.8 min | 72.4% | 315 ng·h/mL | 315 ng·h/mL | 92.7 ng/mL | 15 min | 184 min | 43.6 ng·h/mL | 43.6 ng·h/mL | 31.2 min | 21.5 L/kg
C=CC(=O)N1[C@@H]2COC[C@@H]2C[C@H]1c1nc(-c2ccc(C(=O)Nc3ccccn3)cc2)c2c(N)nccn12 [Compound I-3, 4-(3-((2S,3AR,6AS)-1-ACRYLOYLHEXAHYDRO-1H-FURO[3,4-B]PYRROL-2-YL)-8-AMINOIMIDAZO [1,5-A]PYRAZIN-1-YL)-N-(PYRIDIN-2-YL)BENZAMIDE] | 84.1% | 177 ± 16 mm^3 | 645 ± 202 mm^3 | 647 ± 343 mm^3 | 42% | 21.4 nM | – | – | – | – | – | – | – | – | – | – | – | – | –
CC#CC(=O)N1[C@@H]2COC[C@@H]2C[C@H]1c1nc(-c2ccc(C(=O)Nc3cc(C(F)(F)F)ccn3)cc2F)c2c(N)nccn12 [Compound I-4, 4-(8-AMINO-3-((2S,3AR,6AS)-1-(BUT-2-YNOYL)HEXAHYDRO-1H-FURO[3,4-B]PYRROL-2-YL)IMIDAZO[1,5-A]PYRAZIN-1-YL)-3-FLUORO-N-(4-(TRIFLUOROMETHYL)PYRIDIN-2-YL)BENZAMIDE] | – | – | – | – | 26% | 12.4 nM | – | – | – | – | – | – | – | – | – | – | – | – | –
Nc1nccn2c([C@@H]3C[C@H]4COC[C@H]4N3C(=O)C3CC3)nc(-c3ccc(C(=O)Nc4cc(C(F)(F)F)ccn4)cc3F)c12 [Compound I-7, 4-(8-AMINO-3-((2S,3AR,6AS)-1-(CYCLOPROPANECARBONYL)HEXAHYDRO-1H-FURO[3,4-B]PYRROL-2-YL)IMIDAZO[1,5-A]PYRAZIN-1-YL)-3-FLUORO-N-(4-(TRIFLUOROMETHYL)PYRIDIN-2-YL)BENZAMIDE] | – | – | – | – | 33.9% | 9.7 nM | – | – | – | – | – | – | – | – | – | – | – | – | –
